Test results as given in patent US20230295164A1, “COMPOUNDS HAVING ANTIBACTERIAL ACTIVITY” (The Trustees of Princeton University, priority 2020, published 2023).
Values after ≈ are worked out from the molar mass of the structure shown.

What was measured:
[1] = system: Acinetobacter baumannii, ATCC 17978; assay: MIC testing, broth microdilution in CAMHB; format: cell-based; conditions: 18-20 hr, lowest concentration that completely inhibits visible growth; for MIC: Acinetobacter baumannii, ATCC17978, 37° C., read-out: Compound MICs, Acinetobacter baumannii, ATCC 17978; for Compound MICs, Acinetobacter baumannii, ATCC 17978: 37° C.
Experimental: (§1) Compounds 1-71 were subsequently tested to determine MICs of the compounds relative to the following five species/strains of bacteria: Staphylococcus aureus, NRS384; Enterococcus faecalis, ATCC 51575; Salmonella typhimurium, CMCC 50115; Escherichia coli, ATCC BAA-198; and Acinetobacter baumannii, ATCC 17978. MIC testing of compounds was conducted according to the following protocol.
(§2) For each strain to be tested, made fresh streaks onto CAMHA from −80° C. glycerol stocks.
(§3) • CAMHB: Dissolved 22 g of the powder per 1 L of purified water. Mixed well. Autoclaved at 121° C. for 10 minutes. Stored at room temperature (RT) for no more than 1 week. • Saline: Dissolved 9 g of the powder per 1 L of purified water. Mixed well. Autoclaved at 121° C. for 30 minutes. Stored at room temperature (RT) for no more than 1 week.
(§4) Prepared the stock solutions of the tested compounds.
(§5) For compounds: • a) Dispensed 20 ul compound to the wells in column 1, and 20 ul DMSO to the wells in column 2 to 12; • b) Diluted the compounds by transferring 10 ul compounds from column 1 to 20 ul DMSO in column 2; mix with pipette. • c) Repeated until column 11 to get 3×serial dilutions. Column 12 was the DMSO control.
(§6) A multichannel pipette was used to deliver 1 μl of the diluted compound into each well of the corresponding daughter plate.
(§7) Scraped 4-8 single colonies from an agar plate into 5 ml saline in a 14 ml Falcon conical tube. Vortexed the tube to suspend the bacteria. Adjusted the turbidity to ˜0.2 (corresponding to 0.5 McFarland) with an Ultrospec 10 Cell density meter.
(§8) The strain suspension was diluted 200-fold in CAMHB medium and dispense into a sterile reservoir. A multichannel pipette was then used to deliver 99 μl of the diluted inocula into each well of the corresponding daughter plate.
(§9) Incubate the daughter plates at 37° C., 85% humidity for 18-20 hr.
(§10) A magnifying mirror device was used for ease of scoring the presence or absence of growth in the wells. 96-well micro-plates were photographed.

[2] = system: Enterococcus faecalis, ATCC 51575; assay: MIC testing, broth microdilution in CAMHB; format: cell-based; conditions: 18-20 hr, lowest concentration that completely inhibits visible growth; for MIC: Enterococcus faecalis, ATCC51575, 37° C., read-out: Compound MICs, Enterococcus faecalis, ATCC 51575; for Compound MICs, Enterococcus faecalis, ATCC 51575: 37° C.
Experimental: as §1, §2, §3, §4, §5, §6, §7, §8, §9, §10

[3] = system: Escherichia coli, ATCC BAA-198; assay: MIC testing, broth microdilution in CAMHB; format: cell-based; conditions: 18-20 hr, lowest concentration that completely inhibits visible growth; for MIC: Escherichia coli, ATCCBAA198, 37° C., read-out: Compound MICs, Escherichia coli, ATCC BAA-198; for Compound MICs, Escherichia coli, ATCC BAA-198: 37° C.
Experimental: as §1, §2, §3, §4, §5, §6, §7, §8, §9, §10

[4] = system: Salmonella typhimurium, CMCC 50115; assay: MIC testing, broth microdilution in CAMHB; format: cell-based; conditions: 37° C., 18-20 hr, lowest concentration that completely inhibits visible growth; for MIC: Salmonella enterica, read-out: Compound MICs, Salmonella typhimurium, CMCC 50115
Experimental: as §1, §2, §3, §4, §5, §6, §7, §8, §9, §10

[5] = system: Staphylococcus aureus, NRS384; assay: MIC testing, broth microdilution in CAMHB; format: cell-based; conditions: 18-20 hr, lowest concentration that completely inhibits visible growth; for MIC: Staphylococcus aureus, NRS384, 37° C., read-out: Compound MICs, Staphylococcus aureus, NRS384; for Compound MICs, Staphylococcus aureus, NRS384: 37° C.
Experimental: as §1, §2, §3, §4, §5, §6, §7, §8, §9, §10

[6] = system: P. aeruginosa PA14; assay: MIC testing against P. aeruginosa PA14, same protocol; format: cell-based, Pseudomonas aeruginosa; conditions: according to the protocol above
Experimental: For each strain to be tested, made fresh streaks onto CAMHA from −80° C. glycerol stocks. • CAMHB: Dissolved 22 g of the powder per 1 L of purified water. Mixed well. Autoclaved at 121° C. for 10 minutes. Stored at room temperature (RT) for no more than 1 week. • Saline: Dissolved 9 g of the powder per 1 L of purified water. Mixed well. Autoclaved at 121° C. for 30 minutes. Stored at room temperature (RT) for no more than 1 week. Prepared the stock solutions of the tested compounds. For compounds: • a) Dispensed 20 ul compound to the wells in column 1, and 20 ul DMSO to the wells in column 2 to 12; • b) Diluted the compounds by transferring 10 ul compounds from column 1 to 20 ul DMSO in column 2; mix with pipette. • c) Repeated until column 11 to get 3×serial dilutions. Column 12 was the DMSO control. A multichannel pipette was used to deliver 1 μl of the diluted compound into each well of the corresponding daughter plate. Scraped 4-8 single colonies from an agar plate into 5 ml saline in a 14 ml Falcon conical tube. Vortexed the tube to suspend the bacteria. Adjusted the turbidity to ˜0.2 (corresponding to 0.5 McFarland) with an Ultrospec 10 Cell density meter. The strain suspension was diluted 200-fold in CAMHB medium and dispense into a sterile reservoir. A multichannel pipette was then used to deliver 99 μl of the diluted inocula into each well of the corresponding daughter plate. Incubate the daughter plates at 37° C., 85% humidity for 18-20 hr. […] A magnifying mirror device was used for ease of scoring the presence or absence of growth in the wells. 96-well micro-plates were photographed. […]

Question: `Nc1nc(N)c2c(ccc3c2ccn3Cc2ccc(F)cc2)n1` [Compound 10] was tested. Which MIC [1] did it give?
Answer: 0.79 µg/mL (≈ 2.57 µM)

Question: And the MIC [2]?
Answer: 0.01 µg/mL (≈ 0.0325 µM)

Question: What about the MIC [3] of the same molecule?
Answer: 2.37 µg/mL (≈ 7.71 µM)

Question: And the MIC [4]?
Answer: 0.088 µg/mL (≈ 0.286 µM)

Question: What about the MIC [5] of the same molecule?
Answer: 0.088 µg/mL (≈ 0.286 µM)

Question: And the MIC ([6]; Pseudomonas aeruginosa, PA14, read-out: MICs against P. aeruginosa PA14)?
Answer: 25 µg/mL (≈ 81.3 µM)

Question: Which results are given for `Nc1nc(N)c2c(ccc3c2ccn3-c2ccc(F)cc2)n1` [Compound 40]?
Answer: Compound MICs, Acinetobacter baumannii, ATCC 17978 [1]: 2.37 µg/mL; Compound MICs, Enterococcus faecalis, ATCC 51575 [2]: 0.09 µg/mL; Compound MICs, Escherichia coli, ATCC BAA-198 [3]: 7.11 µg/mL; Compound MICs, Salmonella typhimurium, CMCC 50115 [4]: 0.26 µg/mL; Compound MICs, Staphylococcus aureus, NRS384 [5]: 0.26 µg/mL; MICs against P. aeruginosa PA14 [6]: 45 µg/mL

Question: How did the “Compound MICs, Acinetobacter baumannii, ATCC 17978” value [1] turn out when `Nc1nc(N)c2c(ccc3c2ccn3Cc2ccc(F)nc2)n1` [Compound 45] was run?
Answer: 2.37 µg/mL

Question: And the “Compound MICs, Enterococcus faecalis, ATCC 51575” value [2]?
Answer: 0.01 µg/mL

Question: And the “Compound MICs, Escherichia coli, ATCC BAA-198” value [3]?
Answer: 7.11 µg/mL

Question: And the “Compound MICs, Salmonella typhimurium, CMCC 50115” value [4]?
Answer: 0.003 µg/mL

Question: And the “Compound MICs, Staphylococcus aureus, NRS384” value [5]?
Answer: 0.26 µg/mL

Question: What about the “MICs against P. aeruginosa PA14” value [6] of the same molecule?
Answer: 6.3 µg/mL

Question: For `Nc1nc(N)c2c(ccc3c2ccn3Cc2cccc(F)n2)n1` [Compound 48], which “Compound MICs, Acinetobacter baumannii, ATCC 17978” value [1] is on record?
Answer: 0.79 µg/mL

Question: What about the “Compound MICs, Enterococcus faecalis, ATCC 51575” value [2] of the same molecule?
Answer: ≤0.001 µg/mL

Question: And the “Compound MICs, Escherichia coli, ATCC BAA-198” value [3]?
Answer: 7.11 µg/mL

Question: And the “Compound MICs, Salmonella typhimurium, CMCC 50115” value [4]?
Answer: 0.003 µg/mL

Question: What about the “Compound MICs, Staphylococcus aureus, NRS384” value [5] of the same molecule?
Answer: 0.09 µg/mL

Question: And the “MICs against P. aeruginosa PA14” value [6]?
Answer: 12.5 µg/mL

Question: Which results are given for `Nc1nc(N)c2c(ccc3c2ccn3Cc2ccc3c(c2)OCO3)n1` [Compound 69]?
Answer: Compound MICs, Acinetobacter baumannii, ATCC 17978 [1]: 7.11 µg/mL; Compound MICs, Enterococcus faecalis, ATCC 51575 [2]: 0.03 µg/mL; Compound MICs, Escherichia coli, ATCC BAA-198 [3]: 2.37 µg/mL; Compound MICs, Salmonella typhimurium, CMCC 50115 [4]: 0.26 µg/mL; Compound MICs, Staphylococcus aureus, NRS384 [5]: 0.09 µg/mL

Question: `COc1ccc(Br)cc1Cn1ccc2c3c(N)nc(N)nc3ccc21` [Compound 70] was tested. Which MIC [1] did it give?
Answer: 2.37 µg/mL (≈ 5.95 µM)

Question: And the MIC [2]?
Answer: ≤ 0.001 µg/mL

Question: And the MIC [3]?
Answer: 2.37 µg/mL (≈ 5.95 µM)

Question: And the MIC [4]?
Answer: 0.26 µg/mL (≈ 0.653 µM)

Question: What about the MIC [5] of the same molecule?
Answer: 0.01 µg/mL (≈ 0.0251 µM)

Question: For `COc1cc(Cn2ccc3c4c(N)nc(N)nc4ccc32)cc(OC)c1OC` [Compound 71], which MIC [1] is on record?
Answer: 7.11 µg/mL (≈ 18.7 µM)

Question: What about the MIC [2] of the same molecule?
Answer: 0.01 µg/mL (≈ 0.0264 µM)

Question: What about the MIC [3] of the same molecule?
Answer: 2.37 µg/mL (≈ 6.25 µM)

Question: What about the MIC [4] of the same molecule?
Answer: 0.79 µg/mL (≈ 2.08 µM)

Question: What about the MIC [5] of the same molecule?
Answer: 0.03 µg/mL (≈ 0.0791 µM)
